Ki data for seven compounds are collected here from BindingDB's records for doi:10.1080/14756360109162352 (Universit&Agrave, 2001).

The assay addresses T1, Neutrophil elastase (Homo sapiens, UniProt P08246).
T1 sequence (P08246 whole entry): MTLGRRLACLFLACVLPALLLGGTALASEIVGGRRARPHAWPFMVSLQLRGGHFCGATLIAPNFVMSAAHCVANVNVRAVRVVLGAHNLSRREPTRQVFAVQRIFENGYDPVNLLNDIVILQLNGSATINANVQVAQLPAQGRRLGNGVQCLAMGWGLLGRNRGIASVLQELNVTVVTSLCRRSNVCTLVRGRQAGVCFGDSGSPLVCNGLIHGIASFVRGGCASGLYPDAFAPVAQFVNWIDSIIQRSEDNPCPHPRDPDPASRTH
Kind of assay: Enzyme Assay. As to conditions: 25 °C. The procedure:
The enzyme were assayed spectrophotometrically at 410nm with p-nitroanilide substrates at 25 C.

As usually defined, the Ki is a dissociation constant, usually derived from enzyme kinetics or from competition with a known ligand. Read a high Ki as a looser hold on the target.

Turning to `CCCCc1nn(C)c2c1NOC(=O)N2` [Pyrazolooxadiazinone, 2l], the Ki stood at 113 µM.
The compound `Cc1nn(-c2ccccc2)c2c1NOC(=O)N2` [Pyrazolooxadiazinone, 2a] displayed a Ki of 94 µM.
Compound `Cc1nn(-c2cccc([N+](=O)[O-])c2)c2c1NOC(=O)N2` [Pyrazolooxadiazinone, 2h] yielded an inhibitory constant (Ki) above 8400 µM.
As for `Cc1nn(C)c2c1NOC(=O)N2` [Pyrazolooxadiazinone, 2b], the figure is 207 µM; as for `Cc1nn(-c2ccc(Cl)cc2)c2c1NOC(=O)N2` [Pyrazolooxadiazinone, 2c], 87 µM; as for `Cc1nn(-c2ccccc2[N+](=O)[O-])c2c1NOC(=O)N2` [Pyrazolooxadiazinone, 2g], above 8400 µM.
Regarding `CCc1nn(C)c2c1NOC(=O)N2` [Pyrazolooxadiazinone, 2j], the affinity, expressed as Ki, was 199 µM.
